Results from patent publication US20240091254A1, “WNT AGONISTS FOR PREVENTION OF CANCER” (ACADEMISH MEDISCH CENTRUM, priority 2021, published 2024).

Tests used:
KrasG12D-mutant clones = experiment: KrasG12D clone dynamics in vivo with or without LiCl; set-up: species or system mouse; conditions: Lgr5-CreErt2;Rosa26mTmG;KrasG12D mice
Experimental: (§1) Lgr5-EGFP-IRES-Cre^ERT2 Villin-Cre^ERT2, Rosa26mTmG, Apc^fl/fl and Kras^G12D mice have been described earlier^30-34. All in vivo experiments were approved by the animal experimentation committee at the Amsterdam UMC—location Academic Medical Center in Amsterdam under nationally registered licence number AVD1180020172125 and performed according to national guidelines. Mice were housed in a 12 hour light/12 hour dark cycle, with temperatures between 20-24° C. and 40-70% humidity. For short term assays, both male and female mice were used. For long term assays, only females were used to prevent the risk of preliminary dropout due to fighting male mice. […] For all mouse experiments, sufficient sample sizes were determined based on previous studies with a similar study design^3,35. Experimental animals were randomly assigned to the control or lithium treated groups, clone sizes and adenoma counts were scored blindly. […] Mouse discomfort during tumour formation assays was closely monitored, and endpoints were determined as <15% weight loss within 2 days or a mouse grimace scale (MGS) score<3. […] After 60 days, intestines were removed and polyps were counted macroscopically.
(§2) After the mice were sacrificed, intestines were removed fully and washed thoroughly with ice-cold PBS. […] For all crypt analyses, clone sizes were quantified as proportions of the crypt circumference (in eights, 1:8-8:8). […]

[1] = tested on: Apc-/- mutant clones in crypts; experiment: Short term clonal dynamics of Notumpos/Apc-/- clones in Lgr5-CreErt2;Apcfl/fl mice; type: in vivo, mouse
Experimental: Lgr5-EGFP-IRES-Cre^ERT2 Villin-Cre^ERT2, Rosa26mTmG, Apc^fl/fl and Kras^G12D mice have been described earlier^30-34. All in vivo experiments were approved by the animal experimentation committee at the Amsterdam UMC—location Academic Medical Center in Amsterdam under nationally registered licence number AVD1180020172125 and performed according to national guidelines. Mice were housed in a 12 hour light/12 hour dark cycle, with temperatures between 20-24° C. and 40-70% humidity. For short term assays, both male and female mice were used. For long term assays, only females were used to prevent the risk of preliminary dropout due to fighting male mice. All mice were between 6-12 weeks old at the start of the experiments. For all mouse experiments, sufficient sample sizes were determined based on previous studies with a similar study design^3,35. Experimental animals were randomly assigned to the control or lithium treated groups, clone sizes and adenoma counts were scored blindly. In vivo low-dose recombination was induced by intraperitoneal injection (i.p.) of 0.3 mg (for Rosa26^mTmG and Kras^G12D mice) or 2 mg (for Ape^−/− mice) tamoxifen (Sigma) dissolved in sunflower oil. […] Treatment with LiCl was initiated 7 days before recombination by i.p. injection of tamoxifen and was administered until the day they were sacrificed. For short term experiments to study stem cell dynamics, mice were sacrificed at day 4, 7, 10, 14, 21 days after intra peritoneal (i.p.) injection and intestines were removed and further processed for analyses. For long term adenoma formation experiments, mice were injected with 2 mg tamoxifen and sacrificed 60 days after i.p. injection. Mouse discomfort during tumour formation assays was closely monitored, and endpoints were determined as <15% weight loss within 2 days or a mouse grimace scale (MGS) score<3. […] After 60 days, intestines were removed and polyps were counted macroscopically.
After the mice were sacrificed, intestines were removed fully and washed thoroughly with ice-cold PBS. The intestines were cut into pieces of 5 mm, opened longitudinally and fixed overnight in 4% paraformaldehyde (PFA) solution. To preserve tissue integrity the intestines were kept in 30% sucrose solution for another night before freezing. Crypt bottoms were sliced with a thickness of […] at a Cryostar™ NX70 cryostat and placed on glass slips. Fluorescent lineage tracing labels were visualized with a SP8X Confocal (Leica), slides were counterstained with Hoechst-33342. RNA-ISH stained coupes were counterstained with hematoxylin and scanned using the IntelliSite Ultra Fast 1.6 slide scanner (Philips). For all crypt analyses, clone sizes were quantified as proportions of the crypt circumference (in eights, 1:8-8:8).
RNA in situ hybridisation (RNAscope) and Basescope was performed on fixed frozen intestinal tissue (mouse) and paraffine embedded tissue (mouse and human) according to manufacturer's protocol (ACD RNAscope® 2.5 HD—Brown and Red, and ACD BaseScope™ v2—Red). RNAscope was used for detection of mouse Notum (#428981), Wif1 (#412361), Dkk2 (#404841) or positive control Ppib (#313911) and human NOTUM (#430311) and positive control PPIB (#313901). BaseScope probe ApcE14-E16 (#703011) was used to detect recombined Apc alleles. RNAscope duplex was performed using the RNAscope Duplex Reagent Kit (#322430, ACD) with additional Lgr5 probe (#312171-C2). After RNAscope procedures tissues were counterstained for Hematoxylin or Hoechst-33342. RNAscope was quantified using QuPath software v0.2.2^39.
The clone data was modelled using the models and methods developed in Vermeulen et al.^3. An R package implementing the model was used and is available at https://qithub.com/MorrisseyLab/CryptDriftR.

[2] = tested on: intestinal stem cells (ISCs) / intestinal epithelial cells; experiment: Oral LiCl in WT Lgr5-CreErt2;Rosa26mTmG mice: Wnt activation and neutral ISC dynamics; type: in vivo, mouse
Experimental: as §1, §2

## [Cl-].[Li+] [LiCl, lithium chloride]
KrasG12D-mutant clones
  KrasG12D clone dynamics: remained unaffected
[1]; Lgr5-CreErt2;Apcfl/fl mice, oral LiCl
  Reduction of Lgr5 expression by Notumpos/Apc-/- clones within the same and neighbouring crypts: prevented this
[1]; LiCl treated mice, day 21
  Number of Notumpos clones (crypts): reduced number of Notum^pos clones
[1]; LiCl treated mice, model
  Probability of clonal fixation in a crypt (Pfix): markedly reduced probability of clonal fixation
[1]; LiCl treated mice, adapted drift model, 4.7 untreated with Apc-/- clones, 5.6 fully WT crypts
  Number of functional ISCs (WT stem cells, NWT) in crypts: 6.5 (95% Cl: 6.2-6.8)
[1]; LiCl treated mice, inferred by stem cell drift model, untreated 0.65, neutral 0.5
  Probability of replacement (PR) of WT ISCs by Apc-/- ISCs: 0.34 (95% Cl: 0.31-0.37)
[1]; LiCl versus non-treated mice, up to day 21
  Rate of Notumpos/Apc-/- clone expansion and fixation: significantly reduced
[2]; WT mice, oral LiCl
  Influence on fundamental ISC dynamics (neutral ISC competition): no influence on fundamental ISC dynamics
[2]; oral LiCl 300 mg/liter in tap water
  Wnt activation in intestinal epithelial cells (Lgr5 expression, Lgr5-GFP cells): effective Wnt activation
